Experimental data: ChEMBL document CHEMBL2417447, “Synthesis and binary QSAR study of antitubercular quinolylhydrazides” (2013)

Key:
[1] = test system: Mycobacterium tuberculosis; assay: Antitubercular activity against Mycobacterium tuberculosis H37Rv ATCC 27294 after 5 to 8 days by microplate alamar blue assay; format: functional
[2] = test system: Mycobacterium tuberculosis; assay: Antimycobacterial activity against Mycobacterium tuberculosis H37Rv ATCC 27294 assessed as growth inhibition at 6.25 ug/ml after 5 to 8 days by microplate alamar blue assay relative to control; format: functional; conditions: read-out: GI

Cc1cccc(N/N=C2\C(=O)Nc3ccccc3C2=O)c1
MIC [1]: > 6.25 mg/L | inhibition of growth at 6.25 µg/mL [2]: 42%

COc1ccc2c(c1)C(=O)/C(=N/Nc1ccccc1)C(=O)N2
MIC [1]: > 6.25 mg/L | inhibition of growth at 6.25 µg/mL [2]: 0%

O=C1Nc2c(cccc2[N+](=O)[O-])C(=O)/C1=N/Nc1ccc(Cl)cc1
MIC [1]: < 6.25 mg/L | inhibition of growth at 6.25 µg/mL [2]: 61%

COc1ccc(N/N=C2\C(=O)Nc3ccc(Cl)cc3C2=O)cc1
MIC [1]: < 6.25 mg/L | inhibition of growth at 6.25 µg/mL [2]: 55%
